The text below walks through data of patent publication US20090047288A1, “Glucan compositions and methods of enhancing CR3 dependent neutrophil-mediated cytotoxicity” (priority 2006, published 2009).

The subject of assay [1] is low-grade or slow-growing NHL. As to conditions: 166 patients with advanced low-grade or slow-growing NHL, cited from earlier work.
In another assay the test system is PI 3-kinase. The assay can be described thus: PI 3-kinase activity after dual ligation of CR3 in human neutrophils (ELISA). Format: cell-based. To be noted: dual ligation plus inhibitor: LY294002 50 μM, Piceatannol 25 μM; one hour. In general terms: In an ELISA, binding on a coated surface is turned into a signal by an enzyme label.

Experimental for PI 3-kinase: Human neutrophils were stimulated with anti-M1/70 mAb (1 μg/ml) followed with goat-anti-rat Ig (5 μg/ml) in the presence or absence of the 25 kD active moiety of β-glucan (10 μg/ml) at 37° C. […] For measurement of PI 3-kinase activity, cells were stimulated for one hour and aliquots of cell lysates adjusted for protein concentration (500 μg of protein) were incubated for two hours at 4° C. with anti-PI 3-kinase p85 antibody, and immune complexes were adsorbed onto protein A-agarose for three hours. The complexes were then washed twice with lysis buffer and three times with 10 mM Tris-HCl, pH 7.4. To ensure that PI 3-kinase levels remained equivalent at the end of the immunoprecipitation, 10% from each treatment sample were collected during the last wash in a separate tube and analyzed by SDS-PAGE and immunoblotting with Abs to the p85 PI 3-kinase subunit. […] In brief, cell lysates were prepared and PI-3K was immunoprecipitated with antibody against the p85 subunit and incubated with PI(4,5)P2 (phosphatidylinositol-4,5-diphosphate). […]
Additionally, human peripheral blood neutrophils were stimulated with M1/70 mAb followed by secondary Ab (with or without 25 kD β-glucan) or 25 kD β-glucan alone for one hour. […] The immunoprecipitates were analyzed on SDS-PAGE gel and blotted with anti-PI 3-kinase p85 mAb. The immunoprecipitates were also measured for PI 3-kinase activity by ELISA. […]

As for “rituximab: monoclonal antibody used to treat non-Hodgkin's lymphoma”, in assay [1], the “patients having complete remission” value is reported as 6%. The “patients whose tumors shrunk by at least one half” value in assay [1] (those who completed treatment) is 48%.

Take `O=c1cc(N2CCOCC2)oc2c(-c3ccccc3)cccc12` [LY294002]: the “PI 3-kinase activity (level of PI(3,4,5)P3)” value in the assay with PI 3-kinase was found to be 9.05 ± 1.14 µM.

For the compound `Oc1cc(O)cc(/C=C/c2ccc(O)c(O)c2)c1` [Piceatannol], the “PI 3-kinase activity (level of PI(3,4,5)P3)” value with PI 3-kinase was 17.1 ± 1.5 µM.
